Measured values: ChEMBL document CHEMBL3875185, “Structure-anticonvulsant activity studies in the group of (E)-N-cinnamoyl aminoalkanols derivatives monosubstituted in phenyl ring with 4-Cl, 4-CH3 or 2-CH3” (Bioorg Med Chem, 2017)
Calls of active or inactive are those of the source. The rule behind the calls is not given here.

What was measured:
[1] = molecular target: B2 bradykinin receptor (Homo sapiens) (UniProt P30411); assay: Displacement of [3H]bradykinin from human recombinant bradykinin B2 receptor expressed in CHO cells at 100 uM measured after 60 mins by scintillation counting method relative to control; type: cell-based
B2 bradykinin receptor (Homo sapiens), sequence (P30411 whole entry): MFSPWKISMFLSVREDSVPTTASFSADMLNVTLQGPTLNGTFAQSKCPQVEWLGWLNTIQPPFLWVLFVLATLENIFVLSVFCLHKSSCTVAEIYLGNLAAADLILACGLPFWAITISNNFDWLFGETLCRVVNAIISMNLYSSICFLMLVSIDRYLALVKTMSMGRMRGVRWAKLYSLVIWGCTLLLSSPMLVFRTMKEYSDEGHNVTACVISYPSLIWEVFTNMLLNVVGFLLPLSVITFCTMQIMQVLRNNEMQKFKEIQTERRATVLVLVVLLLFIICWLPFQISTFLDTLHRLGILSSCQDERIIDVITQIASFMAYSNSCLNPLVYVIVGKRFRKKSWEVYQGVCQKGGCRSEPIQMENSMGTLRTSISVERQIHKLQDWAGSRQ

Mus musculus [2] = assay: Anticonvulsant activity in po dosed 6-Hz induced seizure mouse model assessed as restoration of normal activity within 10 secs from stimulation at 44 mA; type: functional
Rattus norvegicus [3] = species: Rattus norvegicus; assay: Displacement of [125I]alpha-dendrotoxin from rat cerebral cortex Kv channel at 100 uM measured after 60 mins by scintillation counting method relative to control
Rattus norvegicus [4] = assay: Anticonvulsant activity in po dosed pentylenetetrazole induced seizure Sprague-Dawley rat model assessed as no observable episode of clonic convulsion of at least 5 secs by measuring time to peak effect; type: functional
[5] = Neurotoxicity in po dosed mouse; type: toxicity, organism-based; conditions: in vivo
Mus musculus [6] = assay: Anticonvulsant activity in po dosed pentylenetetrazole induced seizure mouse model assessed as no observable episode of clonic convulsion of at least 5 secs; type: functional
Rattus norvegicus [7] = species: Rattus norvegicus; assay: Displacement of [3H]D888 from rat cerebral cortex calcium channel L type verapamil binding site at 100 uM measured after 120 mins by scintillation counting method relative to control
Mus musculus [8] = assay: Anticonvulsant activity in po dosed maximal electroshock induced seizure mouse model assessed as suppression in hindlimb tonic extension by measuring time to peak effect; type: functional
Mus musculus [9] = assay: Anticonvulsant activity in po dosed maximal electroshock induced seizure mouse model assessed as suppression in hindlimb tonic extension; type: functional
Mus musculus [10] = assay: Anticonvulsant activity in 6-Hz induced seizure mouse model assessed as restoration of normal activity within 10 secs from stimulation at 100 mg/kg, ip at 32 mA measured at 1 hr post dose; type: functional, organism-based
[11] = molecular target: Type-2 angiotensin II receptor (Homo sapiens) (UniProt P50052); assay: Displacement of [125I]CGP 42112A from human recombinant AT2 receptor expressed in HEK293 cells at 100 uM measured after 4 hrs by scintillation counting method relative to control; type: cell-based
Type-2 angiotensin II receptor (Homo sapiens), sequence (P50052 whole entry): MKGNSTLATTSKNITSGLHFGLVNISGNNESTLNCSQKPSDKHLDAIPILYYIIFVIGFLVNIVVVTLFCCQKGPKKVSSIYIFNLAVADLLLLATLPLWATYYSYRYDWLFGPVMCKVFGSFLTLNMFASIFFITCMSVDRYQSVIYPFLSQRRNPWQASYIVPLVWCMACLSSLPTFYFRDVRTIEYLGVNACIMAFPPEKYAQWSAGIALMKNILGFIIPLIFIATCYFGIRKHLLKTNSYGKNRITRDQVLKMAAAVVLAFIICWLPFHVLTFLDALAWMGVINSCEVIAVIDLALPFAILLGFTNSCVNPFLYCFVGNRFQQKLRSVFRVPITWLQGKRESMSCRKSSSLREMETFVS

Rattus norvegicus [12] = assay: Anticonvulsant activity in maximal electroshock induced seizure Sprague-Dawley rat model assessed as suppression in hindlimb tonic extension at 30 mg/kg, ip measured at 1 hr post dose; type: functional, organism-based
Rattus norvegicus [13] = species: Rattus norvegicus; assay: Displacement of [125I][Tyr4]bombesin from rat cerebral cortex BB receptor at 100 uM measured after 60 mins by scintillation counting method relative to control
[14] = Protection index, ratio of TD50 for neurotoxicity in po dosed mouse to ED50 for po dosed pentylenetetrazole induced seizure mouse model; type: toxicity, organism-based; conditions: in vivo, read-out: Ratio TD50/ED50
[15] = molecular target: Neurotensin receptor type 1 (Homo sapiens) (UniProt P30989); assay: Displacement of [125I]Tyr3-neurotensin from human recombinant NTS1 receptor expressed in CHO cells at 100 uM measured after 60 mins by scintillation counting method relative to control; type: cell-based
Neurotensin receptor type 1 (Homo sapiens), sequence (P30989 whole entry): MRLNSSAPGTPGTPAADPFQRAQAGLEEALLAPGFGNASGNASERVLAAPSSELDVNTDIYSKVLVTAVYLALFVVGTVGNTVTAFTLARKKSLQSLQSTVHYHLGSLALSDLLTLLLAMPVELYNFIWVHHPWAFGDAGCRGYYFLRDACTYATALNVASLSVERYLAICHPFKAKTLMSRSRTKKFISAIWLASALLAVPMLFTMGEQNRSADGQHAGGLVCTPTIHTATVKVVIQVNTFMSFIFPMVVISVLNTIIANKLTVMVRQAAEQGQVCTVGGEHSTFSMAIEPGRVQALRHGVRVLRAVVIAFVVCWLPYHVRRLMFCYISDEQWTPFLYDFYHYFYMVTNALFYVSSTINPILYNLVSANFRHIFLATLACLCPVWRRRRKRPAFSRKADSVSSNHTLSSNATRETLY

Mus musculus [16] = assay: Anticonvulsant activity in po dosed pentylenetetrazole induced seizure mouse model assessed as no observable episode of clonic convulsion of at least 5 secs by measuring time to peak effect; type: functional
Mus musculus [17] = assay: Neurotoxicity in mouse assessed as induction of motor impairment at 300 mg/kg, ip measured at 4 hrs post dose by rotarod method; type: toxicity, organism-based; conditions: in vivo
AtT20 = assay: Displacement of [125I]Tyr11-somatostatin-14 from Sst receptor in mouse AtT-20 cells at 100 uM measured after 60 mins by scintillation counting method relative to control; type: cell-based
[18] = Protection index, ratio of TD50 for neurotoxicity in po dosed mouse to ED50 for po dosed maximal electroshock induced seizure mouse model; type: toxicity, organism-based; conditions: in vivo, read-out: Ratio TD50/ED50
[19] = molecular target: Type-1 angiotensin II receptor (Homo sapiens) (UniProt P30556); assay: Displacement of [125I][Sar1,Ile8]-AT2 from human recombinant AT1 receptor expressed in HEK293 cells at 100 uM measured after 120 mins by scintillation counting method relative to control; type: cell-based
Type-1 angiotensin II receptor (Homo sapiens), sequence (P30556 whole entry): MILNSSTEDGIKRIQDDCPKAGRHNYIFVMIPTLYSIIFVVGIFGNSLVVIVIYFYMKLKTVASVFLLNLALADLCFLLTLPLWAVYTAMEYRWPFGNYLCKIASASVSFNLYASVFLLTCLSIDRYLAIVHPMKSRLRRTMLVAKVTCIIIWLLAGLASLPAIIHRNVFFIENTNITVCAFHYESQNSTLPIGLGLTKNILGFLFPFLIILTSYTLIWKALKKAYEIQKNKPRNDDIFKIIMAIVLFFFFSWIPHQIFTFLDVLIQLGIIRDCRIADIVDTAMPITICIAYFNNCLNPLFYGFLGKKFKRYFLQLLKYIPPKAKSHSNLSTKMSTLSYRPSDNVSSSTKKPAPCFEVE

[20] = molecular target: Calcitonin gene-related peptide type 1 receptor (Homo sapiens) (UniProt Q16602); assay: Displacement of [125I]hCGRPa from human recombinant CGRP receptor expressed in CHO cells at 100 uM measured after 90 mins by scintillation counting method relative to control; type: cell-based
Calcitonin gene-related peptide type 1 receptor (Homo sapiens), sequence (Q16602 whole entry): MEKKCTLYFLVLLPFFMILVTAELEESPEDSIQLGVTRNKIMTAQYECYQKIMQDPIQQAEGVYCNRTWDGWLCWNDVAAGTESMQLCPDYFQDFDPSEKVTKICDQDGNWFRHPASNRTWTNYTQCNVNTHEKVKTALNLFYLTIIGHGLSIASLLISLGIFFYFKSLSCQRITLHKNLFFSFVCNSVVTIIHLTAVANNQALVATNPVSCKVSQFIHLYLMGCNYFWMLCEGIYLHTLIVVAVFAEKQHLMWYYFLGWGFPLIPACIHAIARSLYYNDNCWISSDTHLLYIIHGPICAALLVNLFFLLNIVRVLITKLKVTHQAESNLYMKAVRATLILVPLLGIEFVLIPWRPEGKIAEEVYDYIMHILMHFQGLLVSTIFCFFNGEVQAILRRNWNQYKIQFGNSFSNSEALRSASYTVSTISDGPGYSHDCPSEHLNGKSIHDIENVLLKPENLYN

[21] = Protection index, ratio of TD50 for neurotoxicity in po dosed mouse to ED50 for po dosed 6-Hz induced seizure mouse model at 44 mA; type: toxicity, organism-based; conditions: in vivo, read-out: Ratio TD50/ED50
Mus musculus [22] = assay: Anticonvulsant activity in ip dosed maximal electroshock induced seizure mouse model assessed as suppression in hindlimb tonic extension by measuring time to peak effect; type: functional
Mus musculus [23] = assay: Anticonvulsant activity in po dosed 6-Hz induced seizure mouse model assessed as restoration of normal activity within 10 secs from stimulation by measuring time to peak effect at 44 mA; type: functional
Mus musculus [24] = assay: Neurotoxicity in mouse assessed as induction of motor impairment at 300 mg/kg, ip measured at 0.5 hrs post dose by rotarod method; type: toxicity, organism-based; conditions: in vivo
[25] = molecular target: Neuropeptide Y receptor type 2 (Homo sapiens) (UniProt P49146); assay: Displacement of [125I]peptide YY from Y2 in human KAN-TS cells receptor at 100 uM measured after 60 mins by scintillation counting method relative to control; type: cell-based
Neuropeptide Y receptor type 2 (Homo sapiens), sequence (P49146 whole entry): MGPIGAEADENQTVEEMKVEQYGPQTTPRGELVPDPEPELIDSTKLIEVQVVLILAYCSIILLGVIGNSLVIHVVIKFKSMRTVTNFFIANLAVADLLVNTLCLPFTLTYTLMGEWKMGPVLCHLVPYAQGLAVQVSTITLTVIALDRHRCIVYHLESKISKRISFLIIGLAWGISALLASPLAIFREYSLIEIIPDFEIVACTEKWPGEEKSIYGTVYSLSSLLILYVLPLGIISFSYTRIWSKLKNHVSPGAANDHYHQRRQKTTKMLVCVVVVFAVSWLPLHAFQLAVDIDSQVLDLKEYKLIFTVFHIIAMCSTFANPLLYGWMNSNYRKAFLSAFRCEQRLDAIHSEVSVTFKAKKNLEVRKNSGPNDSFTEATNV

Rattus norvegicus [26] = assay: Neurotoxicity in Sprague-Dawley rat assessed as behavioral change at 50 mg/kg, ip measured at 0.5 hrs post dose; type: toxicity, organism-based; conditions: in vivo
Rattus norvegicus [27] = assay: Neurotoxicity in Sprague-Dawley rat assessed as behavioral change at 50 mg/kg, ip measured at […] post dose; type: toxicity, organism-based; conditions: in vivo
Rattus norvegicus [28] = assay: Neurotoxicity in Sprague-Dawley rat assessed as behavioral change at 50 mg/kg, ip measured at 4 hrs post dose; type: toxicity, organism-based; conditions: in vivo
Rattus norvegicus [29] = assay: Neurotoxicity in Sprague-Dawley rat assessed as behavioral change at 50 mg/kg, ip measured at 2 hrs post dose; type: toxicity, organism-based; conditions: in vivo
Rattus norvegicus [30] = species: Rattus norvegicus; assay: Displacement of [3H]a,b-MeATP from rat urinary bladder P2X receptor at 100 uM measured after 120 mins by scintillation counting method relative to control
Rattus norvegicus [31] = assay: Neurotoxicity in Sprague-Dawley rat assessed as behavioral change at 50 mg/kg, ip measured at 1 hr post dose; type: toxicity, organism-based; conditions: in vivo
Mus musculus [32] = assay: Anticonvulsant activity in maximal electroshock induced seizure mouse model assessed as suppression in hindlimb tonic extension at 300 mg/kg, ip measured at 4 hrs post dose; type: functional, organism-based
Mus musculus [33] = assay: Anticonvulsant activity in 6-Hz induced seizure mouse model assessed as restoration of normal activity within 10 secs from stimulation at 100 mg/kg, ip at 44 mA measured at 0.5 hrs post dose; type: functional, organism-based
[34] = molecular target: Glucocorticoid receptor (Homo sapiens) (UniProt P04150); assay: Displacement of [3H]dexamethasone from GR receptor in human IM9 cells at 100 uM relative to control; type: cell-based; conditions: IM-9
Glucocorticoid receptor (Homo sapiens), sequence (P04150 whole entry): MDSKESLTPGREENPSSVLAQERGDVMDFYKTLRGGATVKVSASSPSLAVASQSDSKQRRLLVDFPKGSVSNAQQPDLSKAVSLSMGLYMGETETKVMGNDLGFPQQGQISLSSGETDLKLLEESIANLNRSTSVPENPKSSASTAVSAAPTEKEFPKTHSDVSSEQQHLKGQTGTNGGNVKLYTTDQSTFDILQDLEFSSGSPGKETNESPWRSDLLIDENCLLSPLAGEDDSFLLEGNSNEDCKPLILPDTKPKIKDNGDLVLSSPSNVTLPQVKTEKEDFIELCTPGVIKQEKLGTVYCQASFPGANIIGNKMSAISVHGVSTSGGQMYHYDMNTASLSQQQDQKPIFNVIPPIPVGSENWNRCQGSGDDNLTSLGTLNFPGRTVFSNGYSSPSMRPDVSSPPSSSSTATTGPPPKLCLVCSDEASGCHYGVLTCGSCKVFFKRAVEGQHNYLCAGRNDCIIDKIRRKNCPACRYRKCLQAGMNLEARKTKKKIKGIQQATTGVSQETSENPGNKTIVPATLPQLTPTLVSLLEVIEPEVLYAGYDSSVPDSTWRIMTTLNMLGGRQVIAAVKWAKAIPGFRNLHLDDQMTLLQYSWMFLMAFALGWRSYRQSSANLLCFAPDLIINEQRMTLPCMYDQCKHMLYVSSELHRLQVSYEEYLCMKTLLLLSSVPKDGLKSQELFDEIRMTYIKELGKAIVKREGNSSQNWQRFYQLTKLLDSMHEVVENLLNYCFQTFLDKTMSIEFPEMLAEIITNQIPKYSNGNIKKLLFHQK

[35] = molecular target: Vasopressin V1a receptor (Homo sapiens) (UniProt P37288); assay: Displacement of [3H]AVP from human recombinant V1a receptor expressed in CHO cells at 100 uM measured after 60 mins by scintillation counting method relative to control; type: cell-based
Vasopressin V1a receptor (Homo sapiens), sequence (P37288 whole entry, looked up): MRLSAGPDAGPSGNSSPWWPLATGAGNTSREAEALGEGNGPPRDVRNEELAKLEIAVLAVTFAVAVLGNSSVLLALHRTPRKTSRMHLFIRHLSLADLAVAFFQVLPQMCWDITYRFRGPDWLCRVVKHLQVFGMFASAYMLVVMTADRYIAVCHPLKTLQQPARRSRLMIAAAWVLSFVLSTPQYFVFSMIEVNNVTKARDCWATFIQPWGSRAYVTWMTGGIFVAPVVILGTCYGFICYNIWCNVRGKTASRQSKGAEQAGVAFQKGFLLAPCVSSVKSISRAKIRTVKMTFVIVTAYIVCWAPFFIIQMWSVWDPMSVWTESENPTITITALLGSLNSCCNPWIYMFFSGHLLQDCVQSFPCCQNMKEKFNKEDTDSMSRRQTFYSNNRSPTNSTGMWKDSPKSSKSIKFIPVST

[36] = molecular target: Histamine H2 receptor (Homo sapiens) (UniProt P25021); assay: Displacement of [125I]APT from human recombinant H2 receptor expressed in CHO cells at 100 uM measured after 120 mins by scintillation counting method relative to control; type: cell-based
Histamine H2 receptor (Homo sapiens), sequence (P25021 whole entry): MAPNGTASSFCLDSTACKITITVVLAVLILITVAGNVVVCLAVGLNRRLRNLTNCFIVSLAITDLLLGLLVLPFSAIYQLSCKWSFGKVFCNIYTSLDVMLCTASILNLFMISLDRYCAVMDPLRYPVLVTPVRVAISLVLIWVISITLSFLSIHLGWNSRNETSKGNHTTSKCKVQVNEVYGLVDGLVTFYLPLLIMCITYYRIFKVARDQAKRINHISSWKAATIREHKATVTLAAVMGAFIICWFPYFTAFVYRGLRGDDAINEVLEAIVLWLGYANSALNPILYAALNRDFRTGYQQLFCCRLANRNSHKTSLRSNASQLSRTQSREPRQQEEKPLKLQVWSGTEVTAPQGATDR

SMILES	inhibition [1] [%]	ED50 (Mus musculus [2]) [mg/kg]	inhibition (Rattus norvegicus [3]) [%]	TD50 [5] [mg/kg]	ED50 (Mus musculus [6]) [mg/kg]	inhibition (Rattus norvegicus [7]) [%]	Time (Mus musculus [8]) [h]	ED50 (Mus musculus [9]) [mg/kg]	Activity (Mus musculus [10])	inhibition (Rattus norvegicus [13]) [%]	selectivity ratio [14]	inhibition [15] [%]	Time (Mus musculus [16]) [h]	Activity (Mus musculus [17])	inhibition (AtT20) [%]	selectivity ratio [18]	inhibition [19] [%]	inhibition [20] [%]	selectivity ratio [21]	Time (Mus musculus [22]) [h]	further results
Cc1ccccc1/C=C/C(=O)N[C@@H](C)CO	-8.3	74.1	-8.7	282	132	-0.4	0.5	43.3	Active	-3.4	2.15	-4.6	0.5	Non-Toxic	-4.6	6.51	-0.8	-7.6	3.81	0.25	Time (Rattus norvegicus [4]): 1 h; inhibition [11]: 2.6%; Activity (Rattus norvegicus [12]): Active; Time (Mus musculus [23]): 0.5 h; Activity (Mus musculus [24]): Toxic
CCC(CO)NC(=O)/C=C/c1ccc(Cl)cc1 (stereo unspecified)	–	–	–	–	–	–	–	–	–	–	–	–	–	–	-10	–	–	–	–	0.25	inhibition [25]: 4.3%; Activity (Rattus norvegicus [26]): Non-Toxic; Activity (Rattus norvegicus [27]): Non-Toxic; Activity (Rattus norvegicus [28]): Non-Toxic; Activity (Rattus norvegicus [29]): Non-Toxic; inhibition (Rattus norvegicus [30]): -8.2%; Activity (Rattus norvegicus [31]): Non-Toxic; Activity (Mus musculus [32]): Active; Activity (Mus musculus [33]): Active; inhibition [34]: -9.9%; inhibition [35]: 10.6%; inhibition [36]: -5.2%
CC(O)CNC(=O)/C=C/c1ccc(Cl)cc1 (stereo unspecified)	-1	120	-9.6	> 500	132	-2.5	1	92.5	Active	-0.1	> 3.79	-2.6	1	Toxic	–	> 5.41	-9.6	-6.9	> 4.17	0.5	inhibition [25]: 14.1%; Activity (Rattus norvegicus [26]): Non-Toxic; Activity (Rattus norvegicus [27]): Non-Toxic; Activity (Rattus norvegicus [28]): Non-Toxic; Activity (Rattus norvegicus [29]): Non-Toxic; Activity (Rattus norvegicus [31]): Non-Toxic; Activity (Mus musculus [32]): Active; Activity (Mus musculus [33]): Active; inhibition [34]: -7%; inhibition [35]: 9%; Time (Mus musculus [23]): 1 h; Activity (Mus musculus [24]): Toxic; inhibition [36]: -6.4%
